Laboratory results taken from patent US20240069408A1, “LIGHT ABSORPTION MATERIAL, RECORDING MEDIUM, INFORMATION RECORDING METHOD, AND INFORMATION READING METHOD” (Panasonic Intellectual Property Management Co., Ltd., priority 2021, published 2024).

Tests used:
[1] = Measurement of two-photon absorption cross-section (z-scan technique, 405 nm); format: physicochemical; conditions: for Two-photon absorption cross-section σ: light of wavelength 405 nm, Ti:sapphire pulsed laser second harmonic, pulse width 80 fs, 1 kHz; for Ratio σ/ε: two-photon absorption cross-section σ (GM) to molar absorption coefficient ε at 405 nm
Excerpt: The two-photon absorption cross-section of the compound A irradiated with light having a wavelength of 405 nm may be greater than or equal to 1 GM, may be greater than or equal to 10 GM, may be greater than or equal to 30 GM, may be greater than or equal to 50 GM, may be greater than or equal to 70 GM, may be greater than or equal to 100 GM, may be greater than or equal to 200 GM, or may be greater than or equal to 300 GM. The upper limit of the two-photon absorption cross-section of the compound A is not particularly limited, and is, for example, 10000 GM. For example, the two-photon absorption cross-section may be measured by the z-scan technique described in J. Opt. Soc. Am. B, 2003, Vol. 20, p. 529. The z-scan technique is widely used as a method for measuring non-linear optical constants. In the z-scan technique, a measurement sample is moved along the beam irradiation direction near the focal point at which the laser beam is focused. During this process, the change in the amount of light transmitted through the measurement sample is recorded. In the z-scan technique, the power density of incident light changes depending on the location of the measurement sample. Thus, when the measurement sample absorbs light non-linearly, the amount of transmitted light is attenuated when the measurement sample is located near the focal point of the laser beam. The two-photon absorption cross-section may be calculated by fitting the changes in the amount of transmitted light based on the theoretical curve predicted from conditions, such as the intensity of the incident light, the thickness of the measurement sample, and the concentration of the compound A in the measurement sample.
The two-photon absorption cross-section of the compounds of Examples and Comparative Examples was measured with respect to light having a wavelength of 405 nm. The measurement of the two-photon absorption cross-section was performed using the z-scan technique described in J. Opt. Soc. Am. B, 2003, Vol. 20, p. 529. The light source used for the measurement of the two-photon absorption cross-section was a Ti:sapphire pulsed laser. Specifically, second harmonic waves from the Ti:sapphire pulsed laser were applied to the sample. The pulse width of the laser was 80 fs. The repetition frequency of the laser was 1 kHz. The average power of the laser was changed in the range of greater than or equal to 0.01 mW and less than or equal to 0.08 mW. […] The full width at half maximum of the light from the laser was 4 nm.

[2] = Measurement of molar absorption coefficient (JIS K0115: 2004, 405 nm); format: physicochemical; conditions: absorbance at 405 nm; compound concentration 500 mmol/L
Excerpt: The molar absorption coefficient of the compound A with respect to light having a wavelength of 405 nm may be less than or equal to 50 mol^−1·L·cm^−1, may be less than or equal to 10 mol^−1·L·cm^−1, may be less than or equal to 5 mol^−1·L·c^−1, may be less than or equal to 2 mol^−1·L·cm^−1, or may be less than or equal to 1 mol^−1·L·cm^−1. The lower limit of the molar absorption coefficient of the compound A is not particularly limited, and is, for example, 0.01 mol^−1·L·cm^−1. The molar absorption coefficient may be measured by, for example, a method in accordance with the manual specified in Japanese Industrial Standards (JIS) K0115: 2004. […] In the measurement of the molar absorption coefficient, furthermore, the concentration of the compound A is adjusted to 500 mmol/L. This concentration is very high compared to the concentration in the measurement test of the molar absorption coefficient of an optical absorption peak. The molar absorption coefficient may be used as an index of one-photon absorption.
The compounds of Examples and Comparative Examples were analyzed by a method in accordance with JIS K0115: 2004 to measure the molar absorption coefficient. Specifically, first, a measurement sample was provided in which the concentration of the compound had been controlled to 500 mmol/L. An absorption spectrum of the measurement sample was measured. From the spectrum obtained, the absorbance at a wavelength of 405 nm was read. The molar absorption coefficient was calculated based on the concentration of the compound in the measurement sample and the optical path length of the cell used for the measurement.

**Q.** Which results are given for COc1cc(Br)c(-c2cc(OC)c(OC)cc2-c2cc(OC)c(OC)cc2-c2cc(OC)c(OC)cc2Br)cc1OC [Ex. 1]?
**A.** Two-photon absorption cross-section σ [1]: 51 GM; Ratio σ/ε [1]: 38; Molar absorption coefficient ε [2]: 1.34 L/mol/cm

**Q.** For OC(C#Cc1ccc(N(c2ccc(C#CC(O)(c3ccccc3)c3ccccc3)cc2)c2ccc(C#CC(O)(c3ccccc3)c3ccccc3)cc2)cc1)(c1ccccc1)c1ccccc1 [compound 2, reference compound], which “Two-photon absorption cross-section σ” value [1] is on record?
**A.** Its value is 380 GM.

**Q.** What about the “Ratio σ/ε” value [1] of the same compound?
**A.** The value was 5.

**Q.** And the “Molar absorption coefficient ε” value [2]?
**A.** Its value is 70 L/mol/cm.

**Q.** Which “Two-photon absorption cross-section σ” value [1] does the source give for C(#Cc1c(C#Cc2ccccc2)c(C#Cc2ccccc2)c(C#Cc2ccccc2)c(C#Cc2ccccc2)c1C#Cc1ccccc1)c1ccccc1 [compound 1, hexakis(phenylethynyl)benzene, reference compound] here?
**A.** Its value is 23000 GM.

**Q.** What about the “Ratio σ/ε” value [1] of the same compound?
**A.** Its value is 10.

**Q.** And the “Molar absorption coefficient ε” value [2]?
**A.** The value was 2730 L/mol/cm.

**Q.** Which results are given for COc1cc(Br)c(-c2cc(OC)c(OC)cc2-c2cc(OC)c(OC)cc2-c2cc(OC)c(OC)cc2-c2cc(OC)c(OC)cc2-c2cc(OC)c(OC)cc2-c2cc(OC)c(OC)cc2-c2cc(OC)c(OC)cc2-c2cc(OC)c(OC)cc2-c2cc(OC)c(OC)cc2-c2cc(OC)c(OC)cc2-c2cc(OC)c(OC)cc2-c2cc(OC)c(OC)cc2-c2cc(OC)c(OC)cc2-c2cc(OC)c(OC)cc2-c2cc(OC)c(OC)cc2Br)cc1OC [Ex. 5]?
**A.** Two-photon absorption cross-section σ [1]: 336 GM; Ratio σ/ε [1]: 223; Molar absorption coefficient ε [2]: 1.51 L/mol/cm

**Q.** What does the source list for COc1cc(Br)c(-c2cc(OC)c(OC)cc2-c2cc(OC)c(OC)cc2-c2cc(OC)c(OC)cc2-c2cc(OC)c(OC)cc2-c2cc(OC)c(OC)cc2-c2cc(OC)c(OC)cc2-c2cc(OC)c(OC)cc2-c2cc(OC)c(OC)cc2-c2cc(OC)c(OC)cc2-c2cc(OC)c(OC)cc2-c2cc(OC)c(OC)cc2-c2cc(OC)c(OC)cc2-c2cc(OC)c(OC)cc2Br)cc1OC [Ex. 4]?
**A.** Two-photon absorption cross-section σ [1]: 82 GM; Ratio σ/ε [1]: 167; Molar absorption coefficient ε [2]: 0.49 L/mol/cm

**Q.** For COc1cc(Br)c(-c2cc(OC)c(OC)cc2-c2cc(OC)c(OC)cc2Br)cc1OC [OP3Br], which “Two-photon absorption cross-section σ” value [1] is on record?
**A.** The value was “could not be measured”.

**Q.** With COc1cc(Br)c(-c2cc(OC)c(OC)cc2-c2cc(OC)c(OC)cc2-c2cc(OC)c(OC)cc2-c2cc(OC)c(OC)cc2-c2cc(OC)c(OC)cc2-c2cc(OC)c(OC)cc2-c2cc(OC)c(OC)cc2Br)cc1OC [Ex. 2] as the compound, how does the “Two-photon absorption cross-section σ” value [1] read?
**A.** The value was 73 GM.

**Q.** What about the “Ratio σ/ε” value [1] of the same compound?
**A.** Its value is 72.

**Q.** And the “Molar absorption coefficient ε” value [2]?
**A.** Its value is 1.01 L/mol/cm.

**Q.** For COc1cc(Br)c(-c2cc(OC)c(OC)cc2-c2cc(OC)c(OC)cc2-c2cc(OC)c(OC)cc2-c2cc(OC)c(OC)cc2-c2cc(OC)c(OC)cc2-c2cc(OC)c(OC)cc2-c2cc(OC)c(OC)cc2-c2cc(OC)c(OC)cc2-c2cc(OC)c(OC)cc2-c2cc(OC)c(OC)cc2-c2cc(OC)c(OC)cc2Br)cc1OC [Ex. 3], which “Two-photon absorption cross-section σ” value [1] is on record?
**A.** Its value is 71 GM.

**Q.** What about the “Ratio σ/ε” value [1] of the same compound?
**A.** The value was 142.

**Q.** What about the “Molar absorption coefficient ε” value [2] of the same compound?
**A.** Its value is 0.50 L/mol/cm.
